# Assays:
# [1] = instrument: DT, stepped-field
# [2] = instrument: DT, single field, calibrated with Agilent tune mix (Agilent)
# [3] = instrument: DT, stepped-field; remark: listed apart in the source
collision cross section (N2) ([1]; [M+Na]+),collision cross section (N2) ([1]; [M+H]+),SMILES,also measured
142.06 Å²,,O=c1[nH]cc(CO)c(=O)[nH]1 [5-Hydroxymethyluracil],collision cross section (N2) ([2]; [M-H]-): 119.21 Å²
168.97 Å²,157.51 Å²,Cc1cn([C@@H]2O[C@H](CO)[C@@H](O)[C@H]2O)c(=O)nc1N [5-Methylcytidine],collision cross section (N2) ([2]; [M+H]+): 157.4 Å²; collision cross section (N2) ([2]; [M-H]-): 152.63 Å²
200.04 Å²,196.99 Å²,CN1c2c([nH]c(N)nc2=O)NCC1CNc1ccc(C(=O)N[C@H](CCC(=O)O)C(=O)O)cc1 (stereo partly specified) [5-Methyltetrahydrofolate],collision cross section (N2) ([2]; [M+H]+): 196.4 Å²; collision cross section (N2) ([2]; [M+Na-2H]-): 201.03 Å²
,129.96 Å²,NCCCCN=C(N)N [Agmatine],collision cross section (N2) ([2]; [M+H]+): 128.2 Å²
204.09 Å²,196.05 Å²,C[C@]12CCC(=O)C=C1CC[C@@H]1[C@@H]2[C@@H](O)C[C@]2(C=O)[C@@H](C(=O)CO)CC[C@@H]12 [Aldosterone],collision cross section (N2) ([2]; [M+H]+): 187.7 Å²; collision cross section (N2) ([2]; [M-H]-): 181.09 Å²
135.56 Å²,121.6 Å²,C[N+](C)(C)CC(=O)[O-] [Betaine],collision cross section (N2) ([2]; [M+H]+): 121.4 Å²
248.83 Å²,246.5 Å²,C=CC1=C(C)C(/C=c2\[nH]/c(=C\c3[nH]c(/C=C4\NC(=O)C(C)=C4C=C)c(C)c3CCC(=O)O)c(CCC(=O)O)c2C)=NC1=O [Biliverdin],collision cross section (N2) ([2]; [M+Na]+): 246.7 Å²; collision cross section (N2) ([2]; [M-H]-): 242.04 Å²
,,CCCCCCCCCCCCC=CC[C@@H](O)[C@H](CO)NC(=O)CCCCCCCCCCCCCCCCCCC [Cer(38:01)],collision cross section (N2) ([3]; [M+H-H2O]+): 263.93 Å²
,,CCCCCCCCCCCCC=CC[C@@H](O)[C@H](CO)NC(=O)CCCCCCCCCCCCCCCCCCCCC [Cer(40:01)],collision cross section (N2) ([3]; [M+H-H2O]+): 269.41 Å²
,,CCCCCCCCCCCCC=CC[C@@H](O)[C@H](CO)NC(=O)CCCCCCCCCCCCCCCCCCCCCC [Cer(41:01)],collision cross section (N2) ([3]; [M+H-H2O]+): 272.16 Å²
,,CCCCCCCCCCCCC=CC[C@@H](O)[C@H](CO)NC(=O)CCCCCCCCCCCCCCCCCCCCCCC [Cer(42:01)],collision cross section (N2) ([3]; [M+H-2H2O]+): 273.88 Å²; collision cross section (N2) ([3]; [M+H-H2O]+): 275.06 Å²; collision cross section (N2) ([3]; [M+H]+): 277.56 Å²
,,CCCCCCCCCCCCC=CC[C@@H](O)[C@H](CO)NC(=O)CC=CCCCCCCCCCCCCCCCCCCCC [Cer(42:02)],collision cross section (N2) ([3]; [M+H-2H2O]+): 271.35 Å²; collision cross section (N2) ([3]; [M+H-H2O]+): 273.26 Å²; collision cross section (N2) ([3]; [M+H]+): 276.77 Å²
,,CCCCCCCCCCCCC=CC[C@@H](O)[C@H](CO)NC(=O)CC=CCC=CCCCCCCCCCCCCCCCCC [Cer(42:03)],collision cross section (N2) ([3]; [M+H-H2O]+): 271.44 Å²; collision cross section (N2) ([3]; [M+H]+): 275.18 Å²
164.45 Å²,154.16 Å²,O=C(O)CCCC[C@@H]1SC[C@@H]2NC(=O)N[C@@H]21 [D-Biotin],collision cross section (N2) ([2]; [M+H]+): 150.4 Å²; collision cross section (N2) ([2]; [M-H]-): 152.96 Å²
179.19 Å²,,OC[C@H]1O[C@H](O[C@H]2[C@H](O)[C@@H](O)[C@H](O)O[C@@H]2CO)[C@H](O)[C@@H](O)[C@@H]1O [D-Maltose],collision cross section (N2) ([2]; [M+K-2H]-): 175.19 Å²; collision cross section (N2) ([2]; [M+Na]+): 178.1 Å²
141.82 Å²,,OC[C@H]1OC(O)[C@@H](O)[C@@H](O)[C@@H]1O (stereo partly drawn) [D-Mannose],collision cross section (N2) ([2]; [M+Na]+): 140.8 Å²
,125.24 Å²,NCCc1ccc(O)c(O)c1 [Dopamine],collision cross section (N2) ([2]; [M-H]-): 129.51 Å²
,,CCCCCCCCCCCCCCCC(=O)N[C@@H](CO[C@@H]1O[C@H](CO)[C@@H](O)C(O)C1O)[C@H](O)CCCCCCCCCCCCCCC (stereo partly specified) [GlcCer(34:00)],collision cross section (N2) ([3]; [M+Na]+): 280.92 Å²
,,CCCCCCCCCCCCC=CC[C@@H](O)[C@H](CO[C@@H]1O[C@H](CO)[C@@H](O)C(O)C1O)NC(=O)CCCCCCCCCCCCCCCCC (stereo partly specified) [GlcCer(36:01)],collision cross section (N2) ([3]; [M+Cl]-): 284.18 Å²; collision cross section (N2) ([3]; [M+H-H2O]+): 279.86 Å²; collision cross section (N2) ([3]; [M+HCOO]-): 287.29 Å²; collision cross section (N2) ([3]; [M+H]+): 282.43 Å²; collision cross section (N2) ([3]; [M+Na]+): 284 Å²
,,CCCCCCCCCCCCC=CC[C@@H](O)[C@H](CO[C@@H]1O[C@H](CO)[C@@H](O)C(O)C1O)NC(=O)CCCCCCCCCCCCCCCCCC (stereo partly specified) [GlcCer(37:01)],collision cross section (N2) ([3]; [M+Na]+): 287.43 Å²
,,CCCCCCCCCCCCCCCCCCCC(=O)N[C@@H](CO[C@@H]1O[C@H](CO)[C@@H](O)C(O)C1O)[C@H](O)CCCCCCCCCCCCCCC (stereo partly specified) [GlcCer(38:00)],collision cross section (N2) ([3]; [M+H]+): 290.18 Å²; collision cross section (N2) ([3]; [M+Na]+): 291.27 Å²
181.14 Å²,,OC[C@H]1O[C@H](OC[C@H]2OC(O)[C@H](O)[C@@H](O)[C@@H]2O)[C@H](O)[C@@H](O)[C@H]1O (stereo partly specified) [Melibiose],collision cross section (N2) ([2]; [M+Na]+): 176.8 Å²
160.36 Å²,,CC(=O)N[C@H]1C(O)O[C@H](CO)[C@@H](O)[C@@H]1O (stereo partly drawn) [N-Acetyl-D-glucosamine],collision cross section (N2) ([2]; [M+H]+): 147.3 Å²

collision cross section (N2) ([1]; [M+Na]+),collision cross section (N2) ([1]; [M+H]+),SMILES,also measured
149.63 Å²,139.03 Å²,CC(=O)N[C@@H](CCC(=O)O)C(=O)O [N-Acetyl-L-glutamate],collision cross section (N2) ([2]; [M+Na-2H]-): 141 Å²
137.3 Å²,129.32 Å²,NC(=O)c1cccnc1 [Nicotinamide],collision cross section (N2) ([2]; [M+H]+): 125.3 Å²
230.37 Å²,216.1 Å²,CCCCCCCCCCCCCCCC(=O)OC(CC(=O)[O-])C[N+](C)(C)C (stereo unspecified) [Palmitoylcarnitine],
,135.63 Å²,Cn1c(=O)[nH]c2ncn(C)c2c1=O [Paraxanthine],
169.03 Å²,186.73 Å²,CC(=O)[C@H]1CC[C@H]2[C@@H]3CCC4=CC(=O)CC[C@]4(C)[C@H]3CC[C@]12C [Progesterone],collision cross section (N2) ([2]; [M+H]+): 181.2 Å²; collision cross section (N2) ([2]; [M-H]-): 182.13 Å²
196.67 Å²,201.3 Å²,CCCCC[C@H](O)/C=C/[C@@H]1[C@H]2C/C(=C/CCCC(=O)O)O[C@H]2C[C@H]1O [Prostaglandin I2],collision cross section (N2) ([2]; [M+H]+): 198.6 Å²; collision cross section (N2) ([2]; [M-H]-): 186.84 Å²
,125.47 Å²,c1cn[nH]c1 [Pyrazole],
165.05 Å²,154.76 Å²,Cc1ncc(COP(=O)(O)O)c(C=O)c1O [Pyridoxal 5'-Phosphate],
145.58 Å²,,O=P(O)(O)OP(=O)(O)O [Pyrophosphoric Acid],
153.72 Å²,146.35 Å²,O=C(O)C1(O)C[C@@H](O)C(O)[C@H](O)C1 (stereo partly specified) [Quinic Acid],
200.6 Å²,,CC/C=C\C[C@H](O)[C@H](O)/C=C/C=C/C=C\C=C\[C@@H](O)C/C=C\CCC(=O)O [Resolvin D2],
291.89 Å²,290.12 Å²,CCCCCCCCCCCCC=CC[C@@H](O)[C@H](COP(=O)([O-])OCC[N+](C)(C)C)NC(=O)CCCCCCCCCCCCCCCC [SM(d18:1/17:0)],
183.57 Å²,,O=C[C@H](O[C@@H]1O[C@H](CO)[C@@H](O)[C@H](O)[C@H]1O)[C@@H](O)[C@H](O)[C@H](O)CO [Sophorose],
,134.37 Å²,Cn1cnc2c1c(=O)[nH]c(=O)n2C [Theobromine],collision cross section (N2) ([2]; [M-H]-): 135.25 Å²
149.63 Å²,143.06 Å²,Cn1c(=O)c2[nH]cnc2n(C)c1=O [Theophylline],collision cross section (N2) ([2]; [M+H]+): 137.6 Å²; collision cross section (N2) ([2]; [M-H]-): 130.14 Å²
197.33 Å²,,CC/C=C\C[C@H](O)/C=C/[C@H]1OC(O)C[C@H](O)[C@@H]1C/C=C\CCCC(=O)O (stereo partly specified) [Thromboxane B3],
146.68 Å²,,C/C=C(\C)C(=O)NCC(=O)O [Tiglyl Glycine],
,130.23 Å²,O=C(O)[C@@H]1C[C@@H](O)CN1 [Trans-4-Hydroxy-L-proline],
149.13 Å²,153.02 Å²,O=C(O)/C=C(\CC(=O)O)C(=O)O [Trans-Aconitic Acid],
143.5 Å²,131 Å²,O=c1[nH]c(=O)c2[nH]c(=O)[nH]c2[nH]1 [Uric Acid],
140.79 Å²,,OC[C@@H](O)C(O)[C@@H](O)CO (stereo partly specified) [Xylitol],collision cross section (N2) ([2]; [M+Na]+): 135.3 Å²; collision cross section (N2) ([2]; [M-H]-): 122.4 Å²
167.4 Å²,,OC1OC[C@@H](O[C@@H]2OC[C@@H](O)[C@H](O)[C@H]2O)[C@H](O)[C@H]1O (stereo partly specified) [Xylobiose],
161.8 Å²,157.17 Å²,C[N+](C)(C)CCOP(=O)([O-])OC[C@H](O)CO [sn-Glycero-3-phosphocholine],

SMILES,collision cross section (N2) ([1]; [M+Na]+),collision cross section (N2) ([1]; [M+H]+),also measured
CCC(CC)Nc1c([N+](=O)[O-])cc(C)c(C)c1[N+](=O)[O-] [Pendimethalin],187.77 Å²,162.6 Å²,
CN(CC(=O)O)/C(N)=N/P(=O)(O)O [Phosphocreatine],,153.77 Å²,collision cross section (N2) ([2]; [M+H]+): 144.4 Å²
Nc1c(Cl)c(Cl)nc(C(=O)O)c1Cl [Picloram],156.37 Å²,142.83 Å²,
CCNc1nc(NC(C)(C)C)nc(SC)n1 [Terbutryn],,161.23 Å²,

# From the C3SDB collision cross section collection
